Test results: patent US12485119B2, “Methods of treating pulmonary arterial hypertension” (ACTELION PHARMACEUTICALS LTD, priority 2019, dated 2025)

Columns and labels:
[1] = tested on: newly diagnosed, treatment-naïve subjects with PAH
Text: The following safety endpoints will be used: • Treatment-emergent AEs. • AEs leading to premature discontinuation of any of the 3 study treatments. • Treatment-emergent SAEs. • Treatment-emergent deaths. • Treatment-emergent marked laboratory abnormalities. • Change from baseline in laboratory variables. • Change from baseline in vital signs.
The safety endpoints will be analyzed for the following time periods: • From Day 1 until EOMOP. • From Day 1 until start of double-blind treatment (selexipag/placebo). • From start until discontinuation of macitentan study treatment (or until EOMOP, whichever is first)+30 days safety follow up. • From start until discontinuation of tadalafil study treatment (or until EOMOP, whichever is first)+30 days safety follow up. • From start until discontinuation of double-blind treatment (or until EOMOP, whichever is first)+30 days safety follow up. • From EOMOP until EOT plus 30 days safety follow-up. • The 30 days safety follow-up.

[2] = tested on: newly diagnosed, treatment-naïve subjects with PAH; assay: Exposure to study treatments, individual maintenance dose and maximum tolerated dose; type: in vivo, human; conditions: up to EOMOP; Safety Set
Protocol: The starting dose of double-blind selexipag or placebo on Day 15±3 is 200 μg twice daily (in the morning and in the evening). The dose is up-titrated in increments of 200 μg twice daily, usually at weekly intervals (see Table 1), until either a maximum dose of 1600 μg twice daily is reached or adverse pharmacological effects that cannot be tolerated or medically managed are experienced, whichever is first. In the event of adverse effects typical of prostanoid therapy, it is recommended not to discontinue double-blind treatment because these effects are usually transient or manageable with symptomatic treatment. If a dose that cannot be tolerated is reached, the dose should be reduced to the previous dose level.

[3] = risk TEAEs (EU Uptravi RMP) up to EOMOP

CC(C)N(CCCCOCC(=O)NS(C)(=O)=O)c1cnc(-c2ccccc2)c(-c2ccccc2)n1 [Selexipag, 2-{4-[(5,6-diphenylpyrazin-2-yl)(propan-2-yl)amino]butoxy}-N-(methanesulfonyl)acetamide]
Tolerability as part of the initial triple therapy regimen ([1]; in vivo): well-tolerated | Bleeding events: PT Blood loss anaemia, % [1, 3]: (0.8) % | Bleeding events: PT Conjunctival haemorrhage, % [1, 3]: (0.8) % | Bleeding events: PT Contusion, % [1, 3]: (0.8) % | Bleeding events: PT Epistaxis, % [1, 3]: (9.2) % | Bleeding events: PT Gastrointestinal haemorrhage, % [1, 3]: (3.4) % | Bleeding events: PT Gastrointestinal polyp haemorrhage, % [1, 3]: (0.8) % | Bleeding events: PT Gingival bleeding, % [1, 3]: (0.8) % | Bleeding events: PT Haematochezia, % [1, 3]: (0.8) % | Bleeding events: PT Haematoma, % [1, 3]: (1.7) % | Bleeding events: PT Haemoptysis, % [1, 3]: (0.8) % | Bleeding events: PT Haemorrhoidal haemorrhage, % [1, 3]: (0.8) % | Bleeding events: PT Hereditary haemorrhagic telangiectasia, % [1, 3]: (0.8) % | Bleeding events: PT Melaena, % [1, 3]: (0.8) % | Bleeding events: PT Menorrhagia, % [1, 3]: (0.8) % | Bleeding events: PT Metrorrhagia, % [1, 3]: (1.7) % | Bleeding events: PT Upper gastrointestinal haemorrhage, % [1, 3]: (1.7) % | Bleeding events: PT Vaginal haemorrhage, % [1, 3]: (0.8) % | Bleeding events: PT Vascular rupture, % [1, 3]: (0.8) % | GI intussusception risk: PT Small intestinal obstruction, % [1, 3]: (0.8) % | MACE: PT Transient ischaemic attack, % [1, 3]: (0.8) % | Medication errors: PT Accidental overdose, % [1, 3]: (0.8) % | Ophthalmological risk: PT Blindness, % [1, 3]: (0.8) % | Ophthalmological risk: PT Photopsia, % [1, 3]: (0.8) % | Ophthalmological risk: PT Retinal vasculitis, % [1, 3]: (0.8) % | Ophthalmological risk: PT Vision blurred, % [1, 3]: (1.7) % | Ophthalmological risk: PT Vitreous floaters, % [1, 3]: (0.8) % | PVOD/pulmonary oedema risk: PT Pulmonary oedema, % [1, 3]: (0.8) % | PVOD/pulmonary oedema risk: PT Pulmonary veno-occlusive disease, % [1, 3]: (0.8) % | Renal risk: PT Acute kidney injury, % [1, 3]: (3.4) % | Renal risk: PT Blood creatinine increased, % [1, 3]: (2.5) % | Renal risk: PT Glomerular filtration rate decreased, % [1, 3]: (0.8) % | Renal risk: PT Prerenal failure, % [1, 3]: (0.8) % | Renal risk: PT Renal failure, % [1, 3]: (0.8) % | Renal risk: PT Renal impairment, % [1, 3]: (0.8) % | Risk Anaemia (all PTs), % [1, 3]: (25.2) % | Risk Anaemia: PT Anaemia, % [1, 3]: (12.6) % | Risk Anaemia: PT Blood loss anaemia, % [1, 3]: (0.8) % | Risk Anaemia: PT Haematocrit decreased, % [1, 3]: (0.8) % | Risk Anaemia: PT Haemoglobin decreased, % [1, 3]: (6.7) % | Risk Anaemia: PT Iron deficiency anaemia, % [1, 3]: (6.7) % | Risk Anaemia: PT Microcytic anaemia, % [1, 3]: (1.7) % | Risk Anaemia: PT Red blood cell count decreased, % [1, 3]: (0.8) % | Risk Bleeding events (all PTs), % [1, 3]: (21.8) % | Risk Gastrointestinal disturbances denoting intestinal intussusception (manifested as ileus or obstruction), % [1, 3]: (0.8) % | Risk Hypotension (all PTs), % [1, 3]: (8.4) % | Risk Hypotension: PT Hypotension, % [1, 3]: (7.6) % | Risk Hypotension: PT Orthostatic hypotension, % [1, 3]: (0.8) % | Risk Light-dependent non-melanoma skin malignancies (all PTs), % [1, 3]: (0.8) % | Risk Major adverse cardiovascular events (MACE) (all PTs), % [1, 3]: (0.8) % | Risk Medication errors (all PTs), % [1, 3]: (0.8) % | Risk Ophthalmological effects associated to retinal vascular system (all PTs), % [1, 3]: (4.2) % | Risk Pulmonary venoocclusive disease associated with pulmonary oedema (all PTs), % [1, 3]: (1.7) % | Risk Renal function impairment/acute renal failure (all PTs), % [1, 3]: (8.4) % | Skin malignancies risk: PT Basal cell carcinoma, % [1, 3]: (0.8) % | Subjects with At Least One Identified or Potential Risk AE, % [1, 3]: (49.6) % | Maximum tolerated dose of double-blind treatment (b.i.d), Median [2]: 1000.0 µg
